For one series, the system named is A549. The series can be described thus: cells. The settings on record: Homo sapiens, A549, 72 h. The class given is functional, cell-based.
Another series concerns MCF7. Nature of the series: cells. The class given is functional, cell-based. The settings on record: Homo sapiens, MCF7, 72 h.
The subject of a further series is LoVo. Nature of the series: cells. The class given is functional, cell-based. Particulars: Homo sapiens, 72 h.
Another series is described as follows: cells. The class given is functional, cell-based. The settings on record: Homo sapiens, LoVo/DX, 72 h.
The next series relates to BALB/3T3. Nature of the series: Cytotoxicity against mouse BALB/3T3 cells assessed as reduction in cell viability incubated for 72 hrs by SRB assay. Particulars: BALB/3T3, 72 h. The class given is ADME, cell-based.
Series [1] can be described thus: Resistance index, ratio of IC50 for human LoVo/DX cells to IC50 for human LoVo cells. The class given is functional.
Series [2] can be described thus: Selectivity index, ratio of IC50 for mouse BALB/3T3 cells to IC50 for human A549 cells. It counts as toxicity. Particulars: BALB/3T3 cells versus A549 cells, read-out: Ratio IC50.
The nature of series [3]: Selectivity index, ratio of IC50 for mouse BALB/3T3 cells to IC50 for human MCF7 cells. It counts as toxicity. The settings on record: BALB/3T3 cells versus MCF7 cells, read-out: Ratio IC50.
The nature of series [4]: Selectivity index, ratio of IC50 for mouse BALB/3T3 cells to IC50 for human LoVo cells. Particulars: BALB/3T3 cells versus LoVo cells, read-out: Ratio IC50. It counts as toxicity.
Series [5] is described as follows: Selectivity index, ratio of IC50 for mouse BALB/3T3 cells to IC50 for human LoVo/DX cells. The class given is toxicity. Particulars: BALB/3T3 cells versus LoVo/DX cells, read-out: Ratio IC50.

Description for A549: Antiproliferative activity against human A549 cells assessed as inhibition of cell proliferation incubated for 72 hrs by SRB assay
Description for LoVo: Antiproliferative activity against human LoVo cells assessed as inhibition of cell proliferation incubated for 72 hrs by SRB assay
Description for MCF7: Antiproliferative activity against human MCF7 cells assessed as inhibition of cell proliferation incubated for 72 hrs by SRB assay

For `CCCCCCCCN[C@H]1CCc2cc(OC)c(OC)c(OC)c2-c2ccc(SC)c(=O)cc21`, the IC50 was 1010 nM with A549; 1120 nM in the series on MCF7; 903 nM in the series with LoVo; 693 nM in the series “cells”; 1040 nM in the series on BALB/3T3. The “Ratio IC50” value in [1] turned out to be 0.8.

Take `CCCC(C)CN[C@H]1CCc2cc(OC)c(OC)c(OC)c2-c2ccc(SC)c(=O)cc21` (stereo partly specified): the IC50 was 11 nM with A549; 17.8 nM with MCF7; 12 nM in the series on LoVo; 70.2 nM in “cells”; 78.5 nM with BALB/3T3. Also, in series [1], the “Ratio IC50” value is 5.8.

Turning to `COc1cc2c(c(OC)c1OC)-c1ccc(SC)c(=O)cc1[C@@H](NCc1ccccc1O)CC2`, the IC50 in the series on A549 stood at 9.3 nM; in the series with MCF7, 10.3 nM; in the series with LoVo it was 9.4 nM; in “cells” it was 41.7 nM; in the series with BALB/3T3, 8.8 nM. Further, the “Ratio IC50” value in series [1] is 4.5.

In the case of `CCCCCCCCCCCCN[C@H]1CCc2cc(OC)c(OC)c(OC)c2-c2ccc(SC)c(=O)cc21`, the IC50 worked out at 152 nM in the series on A549; 719 nM in the series with MCF7; 453 nM with LoVo; 1980 nM in the series “cells”; 1070 nM with BALB/3T3. In series [1], the “Ratio IC50” value worked out at 4.4.

For the compound `COc1cc2c(c(OC)c1OC)-c1ccc(SC)c(=O)cc1[C@@H](NCc1cccc(CN[C@H]3CCc4cc(OC)c(OC)c(OC)c4-c4ccc(SC)c(=O)cc43)n1)CC2`, the half-inhibitory concentration (IC50) was 47.3 nM in the series with A549; 7.7 nM in the series on MCF7; 27.9 nM in the series with LoVo; 400 nM in “cells”; 50.3 nM in the series with BALB/3T3. In addition, the “Ratio IC50” value in series [1] is recorded as 14.3.

As for `COc1cc2c(c(OC)c1OC)-c1ccc(SC)c(=O)cc1[C@@H](NCc1ccccc1)CC2`, the IC50 in the series on A549 is 9.6 nM; in the series with MCF7, 10.3 nM; with LoVo it was 7.9 nM; in the series “cells”, 13.9 nM; in the series with BALB/3T3 it was 9.8 nM. For the same compound, the “Ratio IC50” value in series [1] is listed as 1.8.

For `COc1cc2c(c(OC)c1OC)-c1ccc(SC)c(=O)cc1[C@@H](NCc1ccc(C)cc1)CC2`, the IC50 worked out at 83.4 nM in the series on A549; 100 nM in the series on MCF7; 47.6 nM with LoVo; 52.3 nM in “cells”; 85.4 nM in the series with BALB/3T3. In [1], the “Ratio IC50” value is 1.1.

For the compound `COc1cc2c(c(OC)c1OC)-c1ccc(SC)c(=O)cc1[C@@H](NCCc1ccccc1)CC2`, the IC50 in the series with A549 was 10.7 nM; in the series with MCF7, 11.4 nM; with LoVo, 10.7 nM; in “cells” it was 66.9 nM; in the series with BALB/3T3, 61.2 nM. For the same compound, in series [1], the “Ratio IC50” value stood at 6.2.

As to `COc1cc2c(c(OC)c1OC)-c1ccc(SC)c(=O)cc1[C@@H](NCC(C)C)CC2`, the IC50 with A549 was 10.5 nM; with MCF7 it was 11.3 nM; in the series with LoVo, 8.5 nM; in the series “cells” it was 10.2 nM; in the series with BALB/3T3, 11 nM. Moreover, in series [1], the “Ratio IC50” value is 1.2.

On to `COc1cc2c(c(OC)c1OC)-c1ccc(SC)c(=O)cc1[C@@H](NC/C=C/c1ccccc1)CC2`, for which the IC50 in the series on A549 is 95 nM; in the series on MCF7, 102 nM; in the series with LoVo, 79.2 nM; in “cells” it was 210 nM; in the series on BALB/3T3, 98.6 nM. Also, the “Ratio IC50” value in series [1] amounted to 2.7.

Consider `COc1cc2c(c(OC)c1OC)-c1ccc(SC)c(=O)cc1[C@@H](NCCC(C)C)CC2`, for which the IC50 in the series with A549 was found to be 13.1 nM; in the series on MCF7, 12 nM; with LoVo it was 8.4 nM; in the series “cells”, 9.4 nM; in the series on BALB/3T3, 13.3 nM. The “Ratio IC50” value in series [1] was determined as 1.

As to `CCCCCN[C@H]1CCc2cc(OC)c(OC)c(OC)c2-c2ccc(SC)c(=O)cc21`, the IC50 was 89.5 nM in the series with A549; 92.7 nM with MCF7; 52.8 nM in the series with LoVo; 77.8 nM in “cells”; 99.4 nM in the series with BALB/3T3. Besides, in series [1], the “Ratio IC50” value came to 1.5.

Regarding `CCN[C@H]1CCc2cc(OC)c(OC)c(OC)c2-c2ccc(SC)c(=O)cc21`, the IC50 with A549 came to 10.8 nM; in the series with MCF7, 10.3 nM; with LoVo, 6.5 nM; in “cells”, 54.9 nM; with BALB/3T3, 10.2 nM. Also, the “Ratio IC50” value in [1] turned out to be 8.5.

Regarding `CCCCCCN[C@H]1CCc2cc(OC)c(OC)c(OC)c2-c2ccc(SC)c(=O)cc21`, the IC50 in the series on A549 came out at 104 nM; in the series on MCF7 it was 109 nM; in the series on LoVo, 83 nM; in the series “cells”, 72.7 nM; in the series with BALB/3T3, 107 nM. The “Ratio IC50” value in series [1] turned out to be 0.9.

Take `CCCN[C@H]1CCc2cc(OC)c(OC)c(OC)c2-c2ccc(SC)c(=O)cc21`: the IC50 is 11.6 nM in the series on A549; 12 nM in the series with MCF7; 8.5 nM in the series with LoVo; 31.1 nM in the series “cells”; 14.3 nM in the series with BALB/3T3. Moreover, the “Ratio IC50” value in [1] came to 3.7.

On to `COc1cc2c(c(OC)c1OC)-c1ccc(OC)c(=O)cc1[C@@H](NC(C)=O)CC2` [COLCHICINE], for which the IC50 in the series with A549 came to 19.3 nM; with LoVo it was 12.7 nM; in the series “cells” it was 967 nM; in the series on BALB/3T3, 82.3 nM.

In the case of `COc1cc2c(c(OC)c1OC)-c1ccc(SC)c(=O)cc1[C@@H](NCc1ccncc1)CC2`, the IC50 amounted to 10.9 nM with A549; 9.7 nM in the series on MCF7; 7.8 nM with LoVo; 56.2 nM in “cells”; 10.9 nM in the series on BALB/3T3. Also, the “Ratio IC50” value in series [1] came to 7.2.

Turning to `COc1cccc2c1C(=O)c1c(O)c3c(c(O)c1C2=O)C[C@@](O)(C(=O)CO)C[C@@H]3O[C@H]1C[C@H](N)[C@H](O)[C@H](C)O1` [DOXORUBICIN], the IC50 was found to be 149 nM with A549; 146 nM in the series on MCF7; 71 nM in the series on LoVo; 3960 nM in “cells”; 315 nM with BALB/3T3. Moreover, the “Ratio IC50” value in series [1] is listed as 56.

Take `COc1cc2c(c(OC)c1OC)-c1ccc(SC)c(=O)cc1[C@@H](NCc1ccc(F)cc1)CC2`: the IC50 was 9.6 nM in the series on A549; 11.2 nM in the series on MCF7; 7.6 nM in the series on LoVo; 33.2 nM in the series “cells”; 11.7 nM with BALB/3T3. In series [1], the “Ratio IC50” value is 4.4.

Turning to `COc1ccc(CN[C@H]2CCc3cc(OC)c(OC)c(OC)c3-c3ccc(SC)c(=O)cc32)cc1O`, the IC50 stood at 10.8 nM in the series on A549; 10.3 nM with MCF7; 8.8 nM in the series on LoVo; 69.4 nM in the series “cells”; 10.8 nM in the series with BALB/3T3. In addition, the “Ratio IC50” value in series [1] came out at 7.9.

In the case of `COc1cc2c(c(OC)c1OC)-c1ccc(SC)c(=O)cc1[C@@H](NCc1ccc(I)cc1)CC2`, the IC50 stood at 101 nM in the series with A549; 84.2 nM in the series on MCF7; 72.4 nM in the series on LoVo; 234 nM in “cells”; 119 nM in the series with BALB/3T3. Also, the “Ratio IC50” value in series [1] was 3.2.

In the case of `COc1cc(CN[C@H]2CCc3cc(OC)c(OC)c(OC)c3-c3ccc(SC)c(=O)cc32)ccc1O`, the IC50 amounted to 7.1 nM with A549; 8.2 nM in the series on MCF7; 53.3 nM with LoVo; 85.6 nM in “cells”; 385 nM in the series with BALB/3T3. Moreover, the “Ratio IC50” value in series [1] was determined as 1.8. Further, the selectivity ratio in series [2] was found to be 54.2; in [3], 46.9; in series [4] it was 7.2; in series [5] it was 4.5.

As to `COc1cc2c(c(OC)c1OC)-c1ccc(SC)c(=O)cc1[C@@H](NCc1ccc(Cl)cc1)CC2`, the IC50 in the series on A549 was found to be 70.5 nM; in the series with MCF7, 73.4 nM; in the series on LoVo, 37 nM; in the series “cells”, 64.9 nM; in the series with BALB/3T3 it was 88.2 nM. Moreover, the “Ratio IC50” value in [1] was found to be 1.8.

For `CCCCN[C@H]1CCc2cc(OC)c(OC)c(OC)c2-c2ccc(SC)c(=O)cc21`, the 50% inhibitory concentration (IC50) amounted to 10.9 nM in the series on A549; 12.2 nM in the series on MCF7; 8.8 nM in the series with LoVo; 17.9 nM in “cells”; 11.7 nM in the series on BALB/3T3. Further, the “Ratio IC50” value in series [1] was 2.

The record behind these values is ChEMBL document CHEMBL5030546, “Synthesis of thiocolchicine amine derivatives and evaluation of their antiproliferative activity” (Bioorg Med Chem Lett, 2021).
